Laboratory results as given in PMC5218480 (PLoS ONE, 2017).

Test system: MV-4-11 cells
Test: Gene expression microarray analysis (Affymetrix PrimeView) and GSEA
Assay type: cell-based, human
Set-up: RFU PODN (11730768_x_at) / Fold change /veh PODN (11730768_x_at) / RFU LINC00158 (11744669_a_at) / Fold change /veh LINC00158 (11744669_a_at) / RFU DUSP10 (11751237_a_at) / Fold change /veh DUSP10 (11751237_a_at) / RFU ID3 (11757404_x_at) / Fold change /veh ID3 (11757404_x_at) / RFU PLEKHG5 (11737974_s_at) / Fold change /veh PLEKHG5 (11737974_s_at) / RFU LRRC4B (11730491_at) / Fold change /veh LRRC4B (11730491_at) / RFU GIMAP4 (11747438_a_at) / Fold change /veh GIMAP4 (11747438_a_at) / RFU KRT8 (11758183_x_at) / Fold change /veh KRT8 (11758183_x_at) / RFU CNN1 (11734310_a_at) / Fold change /veh CNN1 (11734310_a_at) / RFU VPS37D (11726825_at) / Fold change /veh VPS37D (11726825_at) / RFU C10orf10 (11716522_x_at) / Fold change /veh C10orf10 (11716522_x_at) / RFU KIR2DL2 /// KIR2DL4 /// KIR2DL5A /// KIR2DL5B /// KIR2DS1 /// KIR2DS2 /// KIR2DS3 /// KIR2DS4 /// KIR3DL3 /// KIR3DL3 /// KIR3DS1 (11738374_at) / Fold change /veh KIR2DL2 /// KIR2DL4 /// KIR2DL5A /// KIR2DL5B /// KIR2DS1 /// KIR2DS2 /// KIR2DS3 /// KIR2DS4 /// KIR3DL3 /// KIR3DL3 /// KIR3DS1 (11738374_at) / RFU C1QL1 (11718748_at) / Fold change /veh C1QL1 (11718748_at) / RFU TMPRSS4 (11747572_a_at) / Fold change /veh TMPRSS4 (11747572_a_at) / RFU HAMP (11756126_x_at) / Fold change /veh HAMP (11756126_x_at) / RFU RNFT2 (11725882_a_at) / Fold change /veh RNFT2 (11725882_a_at) / RFU NR4A2 (11747474_a_at) / Fold change /veh NR4A2 (11747474_a_at) / RFU ABCC12 (11746883_a_at) / Fold change /veh ABCC12 (11746883_a_at) / RFU TMEM136 (11760407_x_at) / Fold change /veh TMEM136 (11760407_x_at) / RFU CLDN22 /// WWC2 (11732394_at) / Fold change /veh CLDN22 /// WWC2 (11732394_at) / RFU HLA-DPB1 (11760878_x_at) / Fold change /veh HLA-DPB1 (11760878_x_at) / RFU SPINT1 (11716480_a_at) / Fold change /veh SPINT1 (11716480_a_at) / RFU GAP43 (11754022_s_at) / Fold change /veh GAP43 (11754022_s_at) / RFU A4GNT (11735810_at) / Fold change /veh A4GNT (11735810_at) / RFU PRB3 (11715151_x_at) / Fold change /veh PRB3 (11715151_x_at) / RFU TUBB4B (11761932_at) / Fold change /veh TUBB4B (11761932_at) / RFU CAPN14 (11732068_a_at) / Fold change /veh CAPN14 (11732068_a_at) / RFU TMCC2 (11721928_a_at) / Fold change /veh TMCC2 (11721928_a_at) / RFU IRGQ (11745062_a_at) / Fold change /veh IRGQ (11745062_a_at) / RFU FAM174B (11720279_a_at) / Fold change /veh FAM174B (11720279_a_at) / RFU TMPRSS4 (11748680_a_at) / Fold change /veh TMPRSS4 (11748680_a_at) / RFU FAM212B (11763350_a_at) / Fold change /veh FAM212B (11763350_a_at) / RFU PLEKHG5 (11743358_a_at) / Fold change /veh PLEKHG5 (11743358_a_at) / RFU ZSCAN30 (11745921_a_at) / Fold change /veh ZSCAN30 (11745921_a_at) / RFU CMKLR1 (11741424_a_at) / Fold change /veh CMKLR1 (11741424_a_at) / RFU LOC101060620 /// MAPK8IP1 (11723275_at) / Fold change /veh LOC101060620 /// MAPK8IP1 (11723275_at) / RFU SPTSSB (11747773_x_at) / Fold change /veh SPTSSB (11747773_x_at) / RFU PRSS12 (11739890_at) / Fold change /veh PRSS12 (11739890_at) / RFU BIN1 (11741810_x_at) / Fold change /veh BIN1 (11741810_x_at) / RFU WNT11 (11732464_a_at) / Fold change /veh WNT11 (11732464_a_at) / RFU C10orf10 (11716521_a_at) / Fold change /veh C10orf10 (11716521_a_at) / RFU C5orf56 (11738089_at) / Fold change /veh C5orf56 (11738089_at) / RFU CYB561 (11721691_x_at) / Fold change /veh CYB561 (11721691_x_at) / RFU ANKRD19P (11752326_a_at) / Fold change /veh ANKRD19P (11752326_a_at) / RFU OR2T12 /// OR2T33 /// OR2T8 (11738714_s_at) / Fold change /veh OR2T12 /// OR2T33 /// OR2T8 (11738714_s_at) / RFU VCAN (11748164_a_at) / Fold change /veh VCAN (11748164_a_at) / RFU JSRP1 (11732532_at) / Fold change /veh JSRP1 (11732532_at) / RFU KRTAP10-11 (11738290_x_at) / Fold change /veh KRTAP10-11 (11738290_x_at) / RFU MYO3A (11730013_a_at) / Fold change /veh MYO3A (11730013_a_at) / RFU EBF3 (11725865_a_at) / Fold change /veh EBF3 (11725865_a_at) / RFU CAMK2N1 (11719241_x_at) / Fold change /veh CAMK2N1 (11719241_x_at) / RFU C5orf56 (11738088_a_at) / Fold change /veh C5orf56 (11738088_a_at) / RFU OLFML3 (11715873_a_at) / Fold change /veh OLFML3 (11715873_a_at) / RFU LOC100653217 /// NTM (11731650_a_at) / Fold change /veh LOC100653217 /// NTM (11731650_a_at) / RFU MAPK11 (11762145_a_at) / Fold change /veh MAPK11 (11762145_a_at) / RFU FIZ1 (11724087_x_at) / Fold change /veh FIZ1 (11724087_x_at) / RFU OASL (11726364_x_at) / Fold change /veh OASL (11726364_x_at) / RFU SOX15 (11748057_x_at) / Fold change /veh SOX15 (11748057_x_at) / RFU CD79A (11719716_a_at) / Fold change /veh CD79A (11719716_a_at) / RFU HIST1H1D (11736915_at) / Fold change /veh HIST1H1D (11736915_at) / RFU CASKIN2 (11723855_a_at) / Fold change /veh CASKIN2 (11723855_a_at) / RFU LOC730098 (11760151_x_at) / Fold change /veh LOC730098 (11760151_x_at) / RFU OR4N2 (11742367_at) / Fold change /veh OR4N2 (11742367_at) / RFU PRRT2 (11749266_a_at) / Fold change /veh PRRT2 (11749266_a_at) / RFU SNX32 (11753110_a_at) / Fold change /veh SNX32 (11753110_a_at) / RFU CDHR5 (11726645_a_at) / Fold change /veh CDHR5 (11726645_a_at) / RFU RCAN1 (11760418_a_at) / Fold change /veh RCAN1 (11760418_a_at) / RFU FAM167A (11723789_a_at) / Fold change /veh FAM167A (11723789_a_at) / RFU FAM26E (11764081_at) / Fold change /veh FAM26E (11764081_at) / RFU ISYNA1 (11749810_s_at) / Fold change /veh ISYNA1 (11749810_s_at) / RFU ACY1 (11761880_at) / Fold change /veh ACY1 (11761880_at) / RFU 11764098_at / Fold change /veh 11764098_at / RFU SAMD14 (11745864_x_at) / Fold change /veh SAMD14 (11745864_x_at) / RFU NPB (11741838_a_at) / Fold change /veh NPB (11741838_a_at) / RFU TMPRSS6 (11731388_a_at) / Fold change /veh TMPRSS6 (11731388_a_at) / RFU KRTAP10-2 (11738614_at) / Fold change /veh KRTAP10-2 (11738614_at) / RFU ARHGAP8 /// PRR5-ARHGAP8 (11727945_x_at) / Fold change /veh ARHGAP8 /// PRR5-ARHGAP8 (11727945_x_at) / RFU KRTAP5-7 /// NADSYN1 (11734609_at) / Fold change /veh KRTAP5-7 /// NADSYN1 (11734609_at) / RFU RASL12 (11751679_a_at) / Fold change /veh RASL12 (11751679_a_at) / RFU CDKN2B (11736163_a_at) / Fold change /veh CDKN2B (11736163_a_at) / RFU PRF1 (11729649_at) / Fold change /veh PRF1 (11729649_at) / RFU, ZNF638 /// ZNF638-IT1 / Fold change vs veh, ZNF638 /// ZNF638-IT1 / RFU, PANK3 / Fold change vs veh, PANK3 / RFU, SH3YL1 / Fold change vs veh, SH3YL1 / RFU, ZEB2 / Fold change vs veh, ZEB2 / RFU, NRIP1 / Fold change vs veh, NRIP1 / RFU, PTTG1IP / Fold change vs veh, PTTG1IP / RFU, CAPN2 / Fold change vs veh, CAPN2 / RFU, MED14 / Fold change vs veh, MED14 / RFU, SNORA58 / Fold change vs veh, SNORA58 / RFU, C1orf63 / Fold change vs veh, C1orf63 / RFU, LRRFIP1 / Fold change vs veh, LRRFIP1 / RFU, NDUFAF7 / Fold change vs veh, NDUFAF7 / RFU, SLC12A2 / Fold change vs veh, SLC12A2 / RFU, IBTK / Fold change vs veh, IBTK / RFU, ESF1 / Fold change vs veh, ESF1 / Fold change vs veh, TMEM50B / RFU, TAOK1 / Fold change vs veh, TAOK1 / RFU, ACBD3 / Fold change vs veh, ACBD3 / RFU, TMA16 / Fold change vs veh, TMA16 / RFU, RWDD3 / Fold change vs veh, RWDD3 / RFU, BCAT1 / Fold change vs veh, BCAT1 / RFU, EDEM3 / Fold change vs veh, EDEM3 / RFU, TMEM33 / Fold change vs veh, TMEM33 / RFU, WDR75 / Fold change vs veh, WDR75 / RFU, AHCTF1 / Fold change vs veh, AHCTF1 / RFU, TFRC / Fold change vs veh, TFRC / RFU, ZDHHC17 / Fold change vs veh, ZDHHC17 / RFU, NOM1 / Fold change vs veh, NOM1 / RFU, ARL8B / Fold change vs veh, ARL8B / RFU, ZBTB11 / Fold change vs veh, ZBTB11 / RFU, TAMM41 / Fold change vs veh, TAMM41 / RFU, KIAA1704 /// LOC100996395 / Fold change vs veh, KIAA1704 /// LOC100996395 / RFU, ING1 / Fold change vs veh, ING1 / RFU, TRMT61B / Fold change vs veh, TRMT61B / RFU, FUBP3 / Fold change vs veh, FUBP3 / RFU, TP53 / Fold change vs veh, TP53 / RFU, TNKS2 / Fold change vs veh, TNKS2 / RFU, ZFP14 / Fold change vs veh, ZFP14 / RFU, ACTR2 / Fold change vs veh, ACTR2 / RFU, PPP3R1 / Fold change vs veh, PPP3R1 / RFU, PIK3R1 / Fold change vs veh, PIK3R1 / RFU, HNRNPA1 / Fold change vs veh, HNRNPA1 / RFU, RNF170 / Fold change vs veh, RNF170 / RFU, ZNF28 / Fold change vs veh, ZNF28 / RFU, RNGTT / Fold change vs veh, RNGTT / RFU, OGT / Fold change vs veh, OGT / RFU, BRD1 / Fold change vs veh, BRD1 / RFU, MARS / Fold change vs veh, MARS / RFU, ZNF655 / Fold change vs veh, ZNF655 / RFU, FAHD1 / Fold change vs veh, FAHD1 / RFU, BDP1 / Fold change vs veh, BDP1 / RFU, LRRCC1 / Fold change vs veh, LRRCC1 / RFU, ARID1A / Fold change vs veh, ARID1A / RFU, ZNF146 / Fold change vs veh, ZNF146 / RFU, ZNF330 / Fold change vs veh, ZNF330 / RFU, GPN3 / Fold change vs veh, GPN3 / RFU, C9orf123 / Fold change vs veh, C9orf123 / RFU, N4BP2L2 / Fold change vs veh, N4BP2L2 / RFU, ARFIP1 / Fold change vs veh, ARFIP1 / RFU, FAM179B / Fold change vs veh, FAM179B / RFU, BCL10 / Fold change vs veh, BCL10 / RFU, UHRF1BP1L / Fold change vs veh, UHRF1BP1L / RFU, BET1 / Fold change vs veh, BET1 / RFU, CNOT2 / Fold change vs veh, CNOT2 / RFU, ZNF268 / Fold change vs veh, ZNF268 / Fold change vs veh, ZNF507 / RFU, DGCR2 / Fold change vs veh, DGCR2 / RFU, WDSUB1 / Fold change vs veh, WDSUB1 / Fold change vs veh, HSP90B1 /// MIR3652 / RFU, ADSS / Fold change vs veh, ADSS / RFU, GK / Fold change vs veh, GK / RFU, ZNF148 / Fold change vs veh, ZNF148 / RFU, TAF9 / Fold change vs veh, TAF9 / RFU, SLC1A5 / Fold change vs veh, SLC1A5 / RFU, SLMO2 / Fold change vs veh, SLMO2 / RFU, ABCC4 / Fold change vs veh, ABCC4 / RFU, LOC101060439 /// RAP1B / Fold change vs veh, LOC101060439 /// RAP1B / RFU, RFX7 / Fold change vs veh, RFX7 / RFU, GTPBP10 / Fold change vs veh, GTPBP10 / RFU, CNEP1R1 / Fold change vs veh, CNEP1R1 / RFU, BIVM-ERCC5 /// ERCC5 / Fold change vs veh, BIVM-ERCC5 /// ERCC5 / RFU, ILF3 / Fold change vs veh, ILF3 / RFU 11762660_at / Fold change /veh 11762660_at / RFU VCAN (11757783_s_at) / Fold change /veh VCAN (11757783_s_at) / RFU DDX43 (11728927_at) / Fold change /veh DDX43 (11728927_at) / RFU KRT8 (11758188_x_at) / Fold change /veh KRT8 (11758188_x_at) / RFU NKD1 (11759106_at) / Fold change /veh NKD1 (11759106_at) / RFU SRD5A1 (11742802_a_at) / Fold change /veh SRD5A1 (11742802_a_at) / RFU TPSAB1 /// TPSB2 (11721975_s_at) / Fold change /veh TPSAB1 /// TPSB2 (11721975_s_at) / RFU GSTM3 (11746129_a_at) / Fold change /veh GSTM3 (11746129_a_at) / RFU IL23R (11737362_x_at) / Fold change /veh IL23R (11737362_x_at) / RFU TMEM51 (11727254_a_at) / Fold change /veh TMEM51 (11727254_a_at) / RFU PIWIL2 (11732686_x_at) / Fold change /veh PIWIL2 (11732686_x_at) / RFU ORM1 (11744905_x_at) / Fold change /veh ORM1 (11744905_x_at) / RFU CCDC152 (11743942_at) / Fold change /veh CCDC152 (11743942_at) / RFU ECM1 (11717891_a_at) / Fold change /veh ECM1 (11717891_a_at) / RFU IL23R (11748794_a_at) / Fold change /veh IL23R (11748794_a_at) / RFU TNFAIP8L3 (11732012_x_at) / Fold change /veh TNFAIP8L3 (11732012_x_at) / RFU MBOAT4 (11741988_at) / Fold change /veh MBOAT4 (11741988_at) / RFU 11764193_at / Fold change /veh 11764193_at / RFU TMEM53 (11763286_at) / Fold change /veh TMEM53 (11763286_at) / RFU MAGEB2 (11727129_at) / Fold change /veh MAGEB2 (11727129_at) / RFU TMEM200A (11744735_a_at) / Fold change /veh TMEM200A (11744735_a_at) / RFU CCDC152 (11751479_a_at) / Fold change /veh CCDC152 (11751479_a_at) / RFU FAM211A (11726209_a_at) / Fold change /veh FAM211A (11726209_a_at) / RFU RGS16 (11746705_a_at) / Fold change /veh RGS16 (11746705_a_at) / RFU VCAN (11755009_s_at) / Fold change /veh VCAN (11755009_s_at) / RFU RHOB (11743442_s_at) / Fold change /veh RHOB (11743442_s_at) / RFU RGS16 (11720943_a_at) / Fold change /veh RGS16 (11720943_a_at) / RFU RGS16 (11720944_at) / Fold change /veh RGS16 (11720944_at) / RFU, VPS4B / Fold change vs veh, VPS4B / RFU, CREB1 / Fold change vs veh, CREB1 / RFU, DNAJC13 / Fold change vs veh, DNAJC13 / RFU, GNAQ / Fold change vs veh, GNAQ / RFU, CDK5R1 / Fold change vs veh, CDK5R1 / RFU, ZRANB3 / Fold change vs veh, ZRANB3 / RFU, CUL4A / Fold change vs veh, CUL4A / RFU, CCNY / Fold change vs veh, CCNY / RFU, UFL1 / Fold change vs veh, UFL1 / RFU, COG3 / Fold change vs veh, COG3 / RFU, DIAPH2 / Fold change vs veh, DIAPH2 / RFU, SKA2 / Fold change vs veh, SKA2 / RFU, AFF3 / Fold change vs veh, AFF3 / RFU, LMF1 / Fold change vs veh, LMF1 / RFU, IPO11 / Fold change vs veh, IPO11 / RFU, DFFB / Fold change vs veh, DFFB / RFU, FOXP1 / Fold change vs veh, FOXP1 / RFU, CARD8 / Fold change vs veh, CARD8 / RFU, STRN3 / Fold change vs veh, STRN3 / RFU, ADK / Fold change vs veh, ADK / RFU, RASSF2 / Fold change vs veh, RASSF2 / RFU, WIPF1 / Fold change vs veh, WIPF1 / RFU, LARP1B / Fold change vs veh, LARP1B / RFU, RASA1 / Fold change vs veh, RASA1 / RFU, RB1 / Fold change vs veh, RB1 / RFU, PPFIA1 / Fold change vs veh, PPFIA1 / RFU, MAT2A / Fold change vs veh, MAT2A / RFU, CCT5 / Fold change vs veh, CCT5 / RFU, WDR92 / Fold change vs veh, WDR92 / RFU, CUX1 / Fold change vs veh, CUX1 / RFU, TTC7A / Fold change vs veh, TTC7A / RFU, TMEM135 / Fold change vs veh, TMEM135 / RFU, DEPTOR / Fold change vs veh, DEPTOR / RFU, CPM / Fold change vs veh, CPM / RFU, DNAJB6 / Fold change vs veh, DNAJB6 / RFU, CACNA2D3 / Fold change vs veh, CACNA2D3 / RFU, DTX4 / Fold change vs veh, DTX4 / RFU, TFCP2 / Fold change vs veh, TFCP2 / RFU, GMCL1 /// GMCL1P1 / Fold change vs veh, GMCL1 /// GMCL1P1 / RFU, AEBP2 / Fold change vs veh, AEBP2 / RFU, SNHG1 /// SNORD22 /// SNORD25 /// SNORD26 /// SNORD27 /// SNORD28 /// SNORD29 /// SNORD31 / Fold change vs veh, SNHG1 /// SNORD22 /// SNORD25 /// SNORD26 /// SNORD27 /// SNORD28 /// SNORD29 /// SNORD31 / Fold change (Aza/veh), C12orf56 (ProbeSet 11735607_a_at) / Fold change (ACY-1035/veh), C12orf56 (ProbeSet 11735607_a_at) / Fold change (Aza/veh), FGFR1OP (ProbeSet 11751329_s_at) / Fold change (ACY-1035/veh), FGFR1OP (ProbeSet 11751329_s_at) / Fold change (Aza/veh), VPS36 (ProbeSet 11739960_a_at) / Fold change (ACY-1035/veh), VPS36 (ProbeSet 11739960_a_at) / RFU SYPL1 (11715823_x_at) / Fold change /veh SYPL1 (11715823_x_at) / RFU IGFBP7 (11715501_s_at) / Fold change /veh IGFBP7 (11715501_s_at) / RFU REEP3 (11722064_at) / Fold change /veh REEP3 (11722064_at) / RFU IGLL1 (11728026_x_at) / Fold change /veh IGLL1 (11728026_x_at): dose or concentration left out as unconfirmed
Conditions: ProbeSet 11717308_a_at; LIST B

## Nc1ccc(-c2cccs2)cc1NC(=O)c1ccc2c(c1)cc(C1CC1)n2CCN1CCOCC1 [ACY-1035]
  Fold change vs veh, WDR75: 0.92
